# Reference: patent US8030453B2, “Methods of making an antibody that binds a chemerin polypeptide” (Euroscreen S.A., priority 2001, dated 2011)
# Peptide text beside a SMILES is read from it.
# T1: human ChemerinR (ChemR23) expressed in CHO-K1 cells (Homo sapiens, UniProt Q99788)
# T1 construct: This fragment was subcloned into the pcDNA3 (Invitrogen) vector; expressed in transfected cells; host or cells: CHO-K1 (co-expressing mitochondrial apoaequorin and Galpha16)
# T1 sequence (Q99788 3-373): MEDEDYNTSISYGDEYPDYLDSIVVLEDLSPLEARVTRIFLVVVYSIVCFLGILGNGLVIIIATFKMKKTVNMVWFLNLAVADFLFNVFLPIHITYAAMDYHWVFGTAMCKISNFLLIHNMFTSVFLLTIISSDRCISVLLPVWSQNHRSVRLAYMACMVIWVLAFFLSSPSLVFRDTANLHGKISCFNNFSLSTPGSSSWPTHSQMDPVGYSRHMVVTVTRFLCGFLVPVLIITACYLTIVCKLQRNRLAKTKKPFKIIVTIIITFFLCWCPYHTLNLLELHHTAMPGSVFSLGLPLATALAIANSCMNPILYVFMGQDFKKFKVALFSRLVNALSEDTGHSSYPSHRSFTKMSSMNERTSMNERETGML
# B1: truncated PreprocHEMERIN: 157 amino acid truncated Preprochemerin polypeptide (SEQ ID NO: 73, FIG. 16) (protein, listed as Homo sapiens)
# chain: MRRLLIPLALWLGAVGVGVAELTEAQRRGLQVALEEFHKHPPVQWAFQETSVESAVDTPFPAGIFVRLEFKLQQTSCRKRDWKKPECKVRPNGRKRKCLACIKLGSEDKVLGRLVHCPIETQVLREAEEHQETQCLRVQRAGEDPHSFYFPGQFAFS
# Target: T1, human ChemerinR (ChemR23) expressed in CHO-K1 cells
# Test: aequorin-based intracellular Ca2+ release assay
# Format: cell-based
# Settings: not given
# Protocol: Briefly, ChemerinR-expressing clones are transfected to coexpress mitochondrial apoaequorin and Gα16. Cells are incubated with 5 μM Coelenterazine H (Molecular Probes) for 4 hours at room temperature, washed in DMEM-F12 culture medium and resuspended at a concentration of 0.5×10^6 cells/ml. Cells are then mixed with test agonist peptides and light emission by the aequorin is recorded with a luminometer for 30 sec. Results are expressed as Relative Light Units (RLU). Controls include assays using membranes isolated from cells not expressing ChemerinR (mock-transfected), in order to exclude possible non-specific effects of the candidate compound.
# ChemerinR-expres sing clones have been obtained by transfection of CHO-K1 cells to coexpressing mitochondrial apoaequorin and Gα16, limiting dilution and selection by northern blotting. Positive clones were used for screening with human ovarian cancer ascites extracts prepared as described above. […] Briefly, cells were collected from plates in PBS containing 5 mM EDTA, pelleted and resuspended at 5×10^6 cells/ml in DMEM-F12 medium. Cells were incubated with 5 μM Coelenterazine H (Molecular Probes) for 4 hours at room temperature. Cells were then washed in DMEM-F12 medium and resuspended at a concentration of 0.5×10^6 cells/ml. Cells were then mixed with test agonist peptides or plates containing tissue extracts and the light emission was recorded for 30 sec using a Microlumat luminometer (Perkin Elmer). Results are expressed as Relative Light Units (RLU).
row,Molecule,EC50 [µM]
1,C[C@H](NC(=O)[C@H](Cc1ccccc1)NC(=O)[C@H](CCC(N)=O)NC(=O)CNC(=O)[C@@H]1CCCN1C(=O)[C@H](Cc1ccccc1)NC(=O)[C@H](Cc1ccc(O)cc1)NC(=O)[C@H](Cc1ccccc1)NC(=O)[C@H](CO)NC(=O)[C@H](Cc1c[nH]cn1)NC(=O)[C@@H]1CCCN1C(=O)[C@H](CC(=O)O)NC(=O)[C@H](CCC(=O)O)NC(=O)CNC(=O)[C@H](C)NC(=O)[C@H](CCCNC(=N)N)NC(=O)[C@@H](N)CCC(N)=O)C(=O)N[C@@H](Cc1ccccc1)C(=O)N[C@@H](CO)C(=O)N[C@@H](CCCCN)C(=O)O [Human [Lys20] Chemerin-19] (H-QRAGEDPHSFYFPGQFAFSK-OH),170
2,C[C@H](NC(=O)[C@H](Cc1ccccc1)NC(=O)[C@H](CCC(N)=O)NC(=O)CNC(=O)[C@@H]1CCCN1C(=O)[C@@H](N)Cc1ccccc1)C(=O)N[C@@H](Cc1ccccc1)C(=O)N[C@@H](CO)C(=O)O [Human Chemerin-8] (H-FPGQFAFS-OH; N-terminus and C-terminus assumed),2 ± 1
3,C[C@H](NC(=O)[C@H](Cc1ccccc1)NC(=O)[C@H](CCC(N)=O)NC(=O)CNC(=O)[C@@H]1CCCN1C(=O)[C@H](Cc1ccccc1)NC(=O)[C@H](Cc1ccc(O)cc1)NC(=O)[C@@H](N)Cc1ccccc1)C(=O)N[C@@H](Cc1ccccc1)C(=O)N[C@@H](CO)C(=O)O [Human Chemerin-10] (H-FYFPGQFAFS-OH; N-terminus and C-terminus assumed),0.0082 ± 0.002
4,C[C@H](NC(=O)[C@H](CCCNC(=N)N)NC(=O)[C@@H](N)CCC(N)=O)C(=O)NCC(=O)N[C@@H](CCC(=O)O)C(=O)N[C@@H](CC(=O)O)C(=O)N1CCC[C@H]1C(=O)N[C@@H](Cc1c[nH]cn1)C(=O)N[C@@H](CO)C(=O)N[C@@H](Cc1ccccc1)C(=O)N[C@@H](Cc1ccc(O)cc1)C(=O)N[C@@H](Cc1ccccc1)C(=O)N1CCC[C@H]1C(=O)NCC(=O)N[C@@H](CCC(N)=O)C(=O)N[C@@H](Cc1ccccc1)C(=O)O [Human [ΔAla17Phe18Ser19] Chemerin-19] (H-QRAGEDPHSFYFPGQF-OH),130 ± 10
5,C[C@H](NC(=O)[C@H](Cc1ccccc1)NC(=O)[C@H](CCC(N)=O)NC(=O)CNC(=O)[C@@H]1CCCN1C(=O)[C@H](Cc1ccccc1)NC(=O)[C@H](Cc1ccc(O)cc1)NC(=O)[C@H](Cc1ccccc1)NC(=O)[C@H](CO)NC(=O)[C@H](Cc1c[nH]cn1)NC(=O)[C@@H]1CCCN1C(=O)[C@H](CC(=O)O)NC(=O)[C@H](CCC(=O)O)NC(=O)CNC(=O)[C@H](C)NC(=O)[C@H](CCCNC(=N)N)NC(=O)[C@@H](N)CCC(N)=O)C(=O)N[C@@H](Cc1ccccc1)C(=O)O [Human [ΔSer19] Chemerin-19] (H-QRAGEDPHSFYFPGQFAF-OH; N-terminus and C-terminus assumed),0.097 ± 0.013
6,C[C@H](NC(=O)[C@H](Cc1ccccc1)NC(=O)[C@H](CCC(N)=O)NC(=O)CNC(=O)[C@@H]1CCCN1C(=O)[C@H](Cc1ccccc1)NC(=O)[C@H](Cc1ccc(O)cc1)NC(=O)[C@H](Cc1ccccc1)NC(=O)[C@H](CO)NC(=O)[C@@H](N)Cc1c[nH]cn1)C(=O)N[C@@H](Cc1ccccc1)C(=O)N[C@@H](CO)C(=O)O [Human Chemerin-12] (H-HSFYFPGQFAFS-OH; N-terminus and C-terminus assumed),0.0122 ± 0.0034
7,C[C@H](NC(=O)[C@H](Cc1ccccc1)NC(=O)[C@H](CCC(N)=O)NC(=O)CNC(=O)[C@@H]1CCCN1C(=O)[C@H](Cc1ccccc1)NC(=O)[C@H](Cc1ccc(O)cc1)NC(=O)[C@H](Cc1ccccc1)NC(=O)[C@H](CO)NC(=O)[C@H](Cc1c[nH]cn1)NC(=O)[C@@H]1CCCN1C(=O)[C@H](CC(=O)O)NC(=O)[C@H](CCC(=O)O)NC(=O)CNC(=O)[C@H](C)NC(=O)[C@H](CCCNC(=N)N)NC(=O)[C@@H](N)CCC(N)=O)C(=O)O [Human [ΔPhe18Ser19] Chemerin-19] (H-QRAGEDPHSFYFPGQFA-OH; N-terminus and C-terminus assumed),220
8,"C[C@H](NC(=O)[C@H](Cc1ccccc1)NC(=O)[C@H](CCC(N)=O)NC(=O)CNC(=O)[C@@H]1CCCN1)C(=O)N[C@@H](Cc1ccccc1)C(=O)N[C@@H](CO)C(=O)O [Human Chemerin-7, PGQFAFS] (H-PGQFAFS-OH)",220 ± 100
9,C[C@H](NC(=O)[C@H](Cc1ccccc1)NC(=O)[C@H](CCC(N)=O)NC(=O)CNC(=O)[C@@H]1CCCN1C(=O)[C@H](Cc1ccccc1)NC(=O)[C@H](Cc1ccc(O)cc1)NC(=O)[C@H](Cc1ccccc1)NC(=O)[C@H](CO)NC(=O)[C@H](Cc1c[nH]cn1)NC(=O)[C@@H]1CCCN1C(=O)[C@H](CC(=O)O)NC(=O)[C@H](CCC(=O)O)NC(=O)CNC(=O)[C@H](C)NC(=O)[C@H](CCCNC(=N)N)NC(=O)[C@@H](N)CCC(N)=O)C(=O)N[C@@H](Cc1ccccc1)C(=O)N[C@@H](CO)C(=O)O [Human Chemerin-19] (H-QRAGEDPHSFYFPGQFAFS-OH),0.0167 ± 0.0032
10,C[C@H](NC(=O)[C@H](Cc1ccccc1)NC(=O)[C@H](CCC(N)=O)NC(=O)CNC(=O)[C@@H]1CCCN1C(=O)[C@H](Cc1ccccc1)NC(=O)[C@H](Cc1ccc(O)cc1)NC(=O)[C@H](Cc1ccccc1)NC(=O)[C@H](CO)NC(=O)[C@H](Cc1c[nH]cn1)NC(=O)[C@@H]1CCCN1)C(=O)N[C@@H](Cc1ccccc1)C(=O)N[C@@H](CO)C(=O)O [Human Chemerin-13] (H-PHSFYFPGQFAFS-OH),0.014
11,C[C@H](N)C(=O)N[C@@H](Cc1ccccc1)C(=O)N1CCC[C@H]1C(=O)NCC(=O)N[C@@H](CCC(N)=O)C(=O)N[C@@H](Cc1ccccc1)C(=O)N[C@@H](C)C(=O)N[C@@H](Cc1ccccc1)C(=O)N[C@@H](CO)C(=O)O [Human [Ala-1] Chemerin-9] (H-AFPGQFAFS-OH; N-terminus and C-terminus assumed),0.496 ± 0.08

# Same assay, conditions: CHO cells expressing ChemerinR, aequorin assay; read-out: EC50 for activation of ChemerinR
row,Molecule,EC50 [µM]
1,B1,0.00427

# Same assay, conditions: result in words
row,Molecule,Mean EC50
1,QRAGEDPHSFYFPGQ,inactif

# Same assay, conditions: truncated Chemerin peptides, values given in μM; read-out: Mean EC50
row,Molecule,EC50 [µM]
1,CC(C)C[C@H](NC(=O)[C@H](C)NC(=O)[C@H](CCCCN)NC(=O)[C@H](CO)NC(=O)[C@H](Cc1ccccc1)NC(=O)[C@H](C)NC(=O)[C@H](Cc1ccccc1)NC(=O)[C@H](CCC(N)=O)NC(=O)CNC(=O)[C@@H]1CCCN1C(=O)[C@H](Cc1ccccc1)NC(=O)[C@H](Cc1ccc(O)cc1)NC(=O)[C@H](Cc1ccccc1)NC(=O)[C@H](CO)NC(=O)[C@H](Cc1c[nH]cn1)NC(=O)[C@@H]1CCCN1C(=O)[C@H](CC(=O)O)NC(=O)[C@H](CCC(=O)O)NC(=O)CNC(=O)[C@H](C)NC(=O)[C@H](CCCNC(=N)N)NC(=O)[C@@H](N)CCC(N)=O)C(=O)N1CCC[C@H]1C(=O)N[C@@H](CCCNC(=N)N)C(=O)N[C@@H](CO)C(=O)O [Human prochemerin-25] (H-QRAGEDPHSFYFPGQFAFSKALPRS-OH; N-terminus and C-terminus assumed),160 ± 21
2,C[C@H](NC(=O)[C@H](C)NC(=O)[C@H](CCC(N)=O)NC(=O)CNC(=O)[C@@H]1CCCN1C(=O)[C@H](Cc1ccccc1)NC(=O)[C@@H](N)Cc1ccc(O)cc1)C(=O)N[C@@H](Cc1ccccc1)C(=O)N[C@@H](CO)C(=O)O [Human [Ala-6] Chemerin-9] (H-YFPGQAAFS-OH; N-terminus and C-terminus assumed),5 ± 1
3,C[C@H](NC(=O)[C@H](C)NC(=O)[C@H](Cc1ccccc1)NC(=O)[C@H](CCC(N)=O)NC(=O)CNC(=O)[C@@H]1CCCN1C(=O)[C@H](Cc1ccccc1)NC(=O)[C@@H](N)Cc1ccc(O)cc1)C(=O)N[C@@H](CO)C(=O)O [Human [Ala-8] Chemerin-9] (H-YFPGQFAAS-OH; N-terminus and C-terminus assumed),38 ± 7

# Same assay, conditions: truncated Chemerin peptides, values in nM; read-out: Mean EC50
row,Molecule,EC50 [µM]
1,C[C@H](NC(=O)[C@H](Cc1ccccc1)NC(=O)[C@H](CCC(N)=O)NC(=O)CNC(=O)[C@@H]1CCCN1C(=O)[C@H](C)NC(=O)[C@@H](N)Cc1ccc(O)cc1)C(=O)N[C@@H](Cc1ccccc1)C(=O)N[C@@H](CO)C(=O)O [Human [Ala-2] Chemerin-9] (H-YAPGQFAFS-OH; N-terminus and C-terminus assumed),0.155 ± 0.0416
